Data on two compounds can be found in patent KR20110136074A, “안정한 에스-베포타스틴 함유 약학조성물 및 이의 제조방법” (이우영, priority 2010, dated 2011).

For series [1] the following is noted: 40℃, 75% relative humidity; cited from earlier work.
The conditions of series [2]: by moisture in additives when formulated with usual excipients and binders; cited from earlier work.
Series [3] is described as follows: Optical purity (chiral HPLC) after storage for 4 weeks at 60℃, 75% relative humidity, exposed or sealed. It counts as physicochemical.

Regarding `O=C(O)CCCN1CCC(O[C@@H](c2ccc(Cl)cc2)c2ccccn2)CC1.O=S(=O)(O)c1ccccc1` [(S)-베포타스틴 벤젠술폰산염], in series [1], the “formation of (R)-isomer and degradation products” value is on record as “(R)-배열의 이성체 및 분해물이 생성된다”.

As to `O=C(O)CCCN1CCC(O[C@@H](c2ccc(Cl)cc2)c2ccccn2)CC1` [유상의 (S)-베포타스틴], in series [2], the “racemization to the (R)-isomer” value was “(R)-배열의 이성체로 라세미화가 일어나”. The “optical purity after 4 weeks, exposed state” value in series [3] (exposed) is 95.56%. For the same compound, the “optical purity after 4 weeks” value in series [3] (exposed or sealed) is listed as 95.5~97.4%. Moreover, in series [3] (sealed), the “optical purity after 4 weeks, sealed state” value was determined as 97.32%.
